Columns and labels:
Assay in all cases: relative viability (nuclei count vs DMSO), 5 days (fraction); higher = more cells survive
Wnt-C59 + Vorinostat = compound: CC1=NC=CC(=C1)C2=CC=C(C=C2)CC(=O)NC3=CC=C(C=C3)C4=CN=CC=C4 [Wnt-C59] + O=C(CCCCCCC(=O)Nc1ccccc1)NO [Vorinostat] (partner 1 µM)
In short: (§1)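 Dosing by pin tool came one day after lung cancer cell lines were seeded in 1536-well plates, using either one drug or a fixed anchor-drug dose plus five library-drug doses (not always all listed) in √10 steps. After 5 days, nuclei were counted on 4× images. Relative viability is treated-well nuclei count divided by vehicle-well nuclei count, and values are medians of duplicate plates.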

Wnt-C59 + Olaparib = compound: CC1=NC=CC(=C1)C2=CC=C(C=C2)CC(=O)NC3=CC=C(C=C3)C4=CN=CC=C4 [Wnt-C59] + O=C(c1cc(Cc2n[nH]c(=O)c3ccccc23)ccc1F)N1CCN(C(=O)C2CC2)CC1 [Olaparib] (partner 8 µM)
In short: as §1

Wnt-C59 + Pemetrexed = compound: CC1=NC=CC(=C1)C2=CC=C(C=C2)CC(=O)NC3=CC=C(C=C3)C4=CN=CC=C4 [Wnt-C59] + Nc1nc2[nH]cc(CCc3ccc(C(=O)N[C@@H](CCC(=O)O)C(=O)O)cc3)c2c(=O)[nH]1 [Pemetrexed] (partner 0.2 µM)
In short: as §1

Wnt-C59 + OSI-027 = compound: CC1=NC=CC(=C1)C2=CC=C(C=C2)CC(=O)NC3=CC=C(C=C3)C4=CN=CC=C4 [Wnt-C59] + COc1cccc2cc(-c3nc([C@H]4CC[C@H](C(=O)O)CC4)n4ncnc(N)c34)[nH]c12 [OSI-027] (partner 0.5 µM)
In short: as §1

| Cell Line | relative viability (Wnt-C59 + Vorinostat; first compound 0.001 µM) | relative viability (Wnt-C59 + Vorinostat; first compound 0.01 µM) | relative viability (Wnt-C59 + Vorinostat; first compound 0.03162 µM) | relative viability (Wnt-C59 + Vorinostat; first compound 0.1 µM) | relative viability (Wnt-C59 + Olaparib; first compound 0.001 µM) | relative viability (Wnt-C59 + Olaparib; first compound 0.01 µM) | relative viability (Wnt-C59 + Olaparib; first compound 0.03162 µM) | relative viability (Wnt-C59 + Olaparib; first compound 0.1 µM) | relative viability (Wnt-C59 + Pemetrexed; first compound 0.001 µM) | relative viability (Wnt-C59 + Pemetrexed; first compound 0.01 µM) | relative viability (Wnt-C59 + Pemetrexed; first compound 0.03162 µM) | relative viability (Wnt-C59 + Pemetrexed; first compound 0.1 µM) | relative viability (Wnt-C59 + OSI-027; first compound 0.001 µM) | relative viability (Wnt-C59 + OSI-027; first compound 0.01 µM) | relative viability (Wnt-C59 + OSI-027; first compound 0.03162 µM) | relative viability (Wnt-C59 + OSI-027; first compound 0.1 µM) |
| --- | --- | --- | --- | --- | --- | --- | --- | --- | --- | --- | --- | --- | --- | --- | --- | --- |
| NCI-H2342 | 0.706 | 0.747 | 0.855 | 0.732 | 0.792 | 0.489 | 0.446 | 0.396 | 0.758 | 0.773 | 0.892 | 0.777 | 0.57 | 0.527 | 0.646 | 0.613 |
| NCI-H460 | 0.688 | 0.711 | 0.743 | 0.648 | 0.462 | 0.483 | 0.474 | 0.459 | 0.0664 | 0.0664 | 0.0652 | 0.0706 | 0.663 | 0.739 | 0.88 | 0.624 |
| CAL-12T | 0.808 | 0.82 | 0.975 | 0.805 | 0.727 | 0.689 | 0.674 | 0.783 | 1.33 | 1.18 | 1.29 | 1.09 | 0.871 | 0.611 | 0.856 | 0.654 |
| NCI-H1650 | 0.69 | 0.638 | 0.606 | 0.516 | 0.78 | 0.817 | 0.802 | 0.684 | 0.354 | 0.442 | 0.38 | 0.422 | 0.756 | 0.569 | 0.645 | 0.647 |
| NCI-H650 | 0.45 | 0.449 | 0.464 | 0.448 | 0.415 | 0.354 | 0.418 | 0.454 | 1.09 | 0.969 | 0.934 | 0.951 | 0.581 | 0.661 | 0.485 | 0.532 |
| NCI-H2085 | 0.758 | 0.717 | 0.811 | 0.756 | 0.795 | 0.769 | 0.822 | 0.744 | 0.837 | 0.887 | 0.963 | 0.888 | 0.837 | 0.569 | 0.747 | 0.77 |
| NCI-H2126 | 0.841 | 0.62 | 0.788 | 0.76 | 0.896 | 0.952 | 0.88 | 0.905 | 0.688 | 0.655 | 0.642 | 0.649 | 0.718 | 0.655 | 0.7 | 0.682 |
| NCI-H1666 | 0.964 | 1 | 0.913 | 1.05 | 0.732 | 0.758 | 0.711 | 0.817 | 0.865 | 0.799 | 0.828 | 0.869 | 0.825 | 0.849 | 0.873 | 0.876 |
| NCI-H727 | 1.14 | 1.16 | 1.09 | 1.14 | 0.691 | 0.697 | 0.823 | 0.677 | – | – | – | – | 0.759 | 0.581 | 0.641 | 0.541 |
| LC-2-ad | 0.699 | 0.714 | 0.742 | 0.688 | 0.725 | 0.74 | 0.716 | 0.356 | 0.282 | 0.297 | 0.271 | 0.283 | 1.18 | 0.822 | 0.937 | 0.729 |
| HCC-827 | 0.901 | 0.922 | 1.01 | 0.77 | 0.668 | 0.594 | 0.689 | 0.587 | 0.282 | 0.262 | 0.282 | 0.255 | 0.877 | 0.724 | 0.9 | 0.761 |
| NCI-H522 | 0.899 | 0.954 | 0.759 | 0.873 | 0.694 | 0.74 | 0.565 | 0.581 | 1.18 | 1.03 | 1.17 | 0.855 | 0.683 | 0.654 | 0.742 | 0.784 |
| SW 900 | 0.475 | 0.343 | 0.479 | 0.488 | 0.887 | 0.814 | 0.987 | 0.987 | 0.505 | 0.469 | 0.483 | 0.478 | 0.585 | 0.54 | 0.457 | 0.554 |
| SK-LU-1 | 0.672 | 0.768 | 0.81 | 0.682 | 0.444 | 0.476 | 0.4 | 0.434 | 0.969 | 1 | 1 | 0.973 | 0.406 | 0.283 | 0.39 | 0.364 |
| HCC-366 | 0.338 | 0.2 | 0.309 | 0.335 | 0.346 | 0.359 | 0.362 | 0.34 | 0.164 | 0.16 | 0.163 | 0.155 | 0.774 | 0.542 | 1.02 | 1.04 |
| EPLC-272H | 0.394 | 0.561 | 0.512 | 0.396 | 0.778 | 0.854 | 0.942 | 0.842 | 0.38 | 0.354 | 0.318 | 0.315 | 0.345 | 0.231 | 0.332 | 0.236 |
| NCI-H322M | 0.86 | 0.816 | 0.746 | 0.93 | 0.704 | 0.804 | 0.828 | 0.765 | 0.649 | 0.589 | 0.579 | 0.569 | 0.53 | 0.498 | 0.442 | 0.399 |
| NCI-H1944 | 0.621 | 0.552 | 0.57 | 0.621 | 0.463 | 0.396 | 0.343 | 0.388 | 0.615 | 0.594 | 0.639 | 0.602 | 0.407 | 0.358 | 0.415 | 0.462 |
| IA-LM | 0.934 | 0.906 | – | 0.939 | 0.848 | 0.873 | 0.969 | 0.712 | – | – | – | – | – | – | – | – |
| NCI-H1792 | – | – | – | – | 0.487 | 0.48 | 0.525 | 0.385 | 0.723 | 0.714 | 0.777 | 1.18 | 0.722 | 0.686 | 0.926 | 0.703 |
| ABC-1 | 1.05 | 1.07 | 1.07 | 1.18 | 1 | 0.898 | 0.502 | 0.846 | – | – | – | – | 0.441 | 0.597 | 0.435 | 0.389 |
| EBC-1 | – | – | – | – | 0.742 | 0.75 | 0.681 | 0.635 | – | – | – | – | – | – | – | – |
